According to patent US9073897B2, “Cyclic sulfonium salt, process for production of same, and α-glucosidase inhibitor comprising same” (KINKI UNIVERSITY, priority 2011, dated 2015):

Key:
Format in all cases: biochemical
[1] = target: Maltase; assay: α-glucosidase inhibition, rat small intestinal brush border membrane, maltose substrate; details: rat small intestine brush border membrane; maltose (74 mM); 0.1M maleate buffer (pH6.0); 37° C. for 30 minutes
Description: (§1) Brush border membrane follicles of rat's small intestine were prepared in accordance with the literature (Kessler, M. et al., Biochem. Biophys. Act, 1978, 506, 136), and a suspension of the follicles in 0.1M maleate buffer (pH6.0) was used as an intraintestinal α-glucosidase (maltase, sucrose and isomaltase).
A compound to be tested was dissolved in methylsulfoxide (DMSO) and the resulting solution was diluted with 0.1M maleate buffer to prepare a solution of the testing compound (DMSO concentration: 10%). A solution of a substrate (sucrose (74 mM), maltose (74 mM) or isomaltose (74 mM, […]) in the maleate buffer, a solution (25 μl) of the testing compound and the enzyme solution (25 μl) were mixed and the resulting solution was incubated at 37° C. for 30 minutes. Immediately after incubation, the resulting solution was heated by boiling water to terminate the reaction and mixed with water (150 μl). The concentration of glucose was measured by glucose oxidase method. The final concentration of DMSO in the testing solution was set to 2.5%, and no influence of DMSO on an inhibitory activity was detected. A 50% inhibitory concentration (IC50) was computed from the measured values.

[2] = target: T1, Sucrase (Rattus norvegicus, UniProt P23739); assay: α-glucosidase inhibition, rat small intestinal brush border membrane, sucrose substrate; details: rat small intestine brush border membrane; sucrose (74 mM); 0.1M maleate buffer (pH6.0); 37° C. for 30 minutes
T1 construct: Brush border membrane follicles of rat's small intestine were prepared; from tissue; host or cells: rat small intestine brush border membrane vesicles
T1 sequence (P23739 whole entry): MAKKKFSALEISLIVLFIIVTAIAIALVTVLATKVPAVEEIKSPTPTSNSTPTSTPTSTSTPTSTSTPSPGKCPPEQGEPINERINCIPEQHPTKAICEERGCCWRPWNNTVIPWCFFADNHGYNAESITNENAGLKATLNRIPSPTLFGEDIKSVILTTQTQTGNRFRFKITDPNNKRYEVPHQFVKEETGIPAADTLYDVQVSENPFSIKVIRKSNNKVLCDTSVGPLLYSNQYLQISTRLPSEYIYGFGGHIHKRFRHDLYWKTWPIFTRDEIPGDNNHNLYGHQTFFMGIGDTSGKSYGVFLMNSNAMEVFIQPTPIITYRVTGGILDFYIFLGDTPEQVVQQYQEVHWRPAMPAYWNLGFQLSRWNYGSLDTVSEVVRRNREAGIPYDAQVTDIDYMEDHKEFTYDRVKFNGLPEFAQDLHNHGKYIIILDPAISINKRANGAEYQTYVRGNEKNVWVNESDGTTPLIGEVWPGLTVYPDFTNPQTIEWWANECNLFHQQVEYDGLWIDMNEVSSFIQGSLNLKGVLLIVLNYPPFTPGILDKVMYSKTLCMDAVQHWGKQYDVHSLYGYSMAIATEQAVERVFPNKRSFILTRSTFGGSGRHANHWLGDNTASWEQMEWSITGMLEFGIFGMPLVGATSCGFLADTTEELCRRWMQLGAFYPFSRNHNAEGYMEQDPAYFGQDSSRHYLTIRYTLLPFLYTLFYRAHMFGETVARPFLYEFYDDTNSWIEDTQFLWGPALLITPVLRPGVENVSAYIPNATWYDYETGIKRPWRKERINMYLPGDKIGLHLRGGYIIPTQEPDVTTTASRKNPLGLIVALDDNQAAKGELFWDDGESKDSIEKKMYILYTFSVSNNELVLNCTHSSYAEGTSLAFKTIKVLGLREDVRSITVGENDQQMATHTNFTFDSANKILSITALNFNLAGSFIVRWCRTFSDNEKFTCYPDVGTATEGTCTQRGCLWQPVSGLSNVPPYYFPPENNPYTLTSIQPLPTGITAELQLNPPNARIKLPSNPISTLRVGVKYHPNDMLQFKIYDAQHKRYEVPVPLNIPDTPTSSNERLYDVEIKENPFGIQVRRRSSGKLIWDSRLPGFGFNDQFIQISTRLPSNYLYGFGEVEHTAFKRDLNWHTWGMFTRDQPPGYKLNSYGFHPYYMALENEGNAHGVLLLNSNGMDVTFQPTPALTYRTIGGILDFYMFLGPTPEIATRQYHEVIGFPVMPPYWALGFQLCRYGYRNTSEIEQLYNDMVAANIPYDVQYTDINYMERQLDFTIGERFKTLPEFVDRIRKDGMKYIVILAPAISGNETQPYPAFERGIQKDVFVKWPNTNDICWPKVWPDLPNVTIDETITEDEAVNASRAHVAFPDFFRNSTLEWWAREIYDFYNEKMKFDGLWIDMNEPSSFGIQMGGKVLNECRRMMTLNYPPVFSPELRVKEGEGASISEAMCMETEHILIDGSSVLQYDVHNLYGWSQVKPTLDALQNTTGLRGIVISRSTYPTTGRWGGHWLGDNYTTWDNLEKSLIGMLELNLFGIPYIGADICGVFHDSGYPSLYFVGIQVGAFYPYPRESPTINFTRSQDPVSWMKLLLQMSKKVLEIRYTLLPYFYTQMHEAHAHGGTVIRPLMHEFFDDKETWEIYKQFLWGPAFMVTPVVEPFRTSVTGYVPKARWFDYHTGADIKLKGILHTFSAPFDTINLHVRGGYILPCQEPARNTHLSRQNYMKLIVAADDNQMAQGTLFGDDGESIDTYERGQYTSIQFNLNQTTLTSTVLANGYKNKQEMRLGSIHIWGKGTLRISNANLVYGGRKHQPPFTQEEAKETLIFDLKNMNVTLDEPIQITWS
Description: as §1
(§2) A compound to be tested was dissolved in methylsulfoxide (DMSO) and the resulting solution was diluted with 0.1M maleate buffer to prepare a solution of the testing compound (DMSO concentration: 10%). […] A 50% inhibitory concentration (IC50) was computed from the measured values.

[3] = target: T2, Isomaltase (Rattus norvegicus, UniProt P23739); assay: α-glucosidase inhibition, rat small intestinal brush border membrane, isomaltose substrate; details: rat small intestine brush border membrane; isomaltose (74 mM); 0.1M maleate buffer (pH6.0); 37° C. for 30 minutes
T2 construct: Brush border membrane follicles of rat's small intestine were prepared; from tissue; host or cells: rat small intestine brush border membrane vesicles
T2 sequence (P23739 whole entry): as above
Description: as §1, §2

α-glucosidase (IC50) Maltase [1] [µg/mL]	IC50 [2] [µM]	IC50 [3] [µM]	α-glucosidase (IC50) Sucrase [2] [µg/mL]	α-glucosidase (IC50) Isomaltase [3] [µg/mL]	SMILES
0.58	1.59	0.579	–	–	OCC(OCc1ccccc1)C(O)C[S+]1CC(O)C(O)C1CO [Compound (Ig) (X = Cl), 1,4-Dideoxy-1,4-[(R)-[2-O-benzyl-4-deoxy-D-erythritol-4-yl]episulfoniumylidene]-D-arabitol chloride]
0.84	3.62	0.974	–	–	Cc1cccc(COC(CO)C(O)C[S+]2CC(O)C(O)C2CO)c1 [Compound (Ii), 1,4-Dideoxy-1,4-[(R)-[4-deoxy-2-O-(m-methylbenzyl)-D-erythritol-4-yl]episulfoniumylidene]-D-arabitol chloride]
0.66	1.14	1.34	–	–	Cc1ccccc1COC(CO)C(O)C[S+]1CC(O)C(O)C1CO [Compound (Ih), 1,4-Dideoxy-1,4-[(R)-[4-deoxy-2-O-(o-methylbenzyl)-D-erythritol-4-yl]episulfoniumylidene]-D-arabitol chloride]
5.3	1.71	1.45	–	–	COC(CO)C(O)C[S+]1CC(O)C(O)C1CO [Compound (Ia), 1,4-Dideoxy-1,4-[(R)-[4-deoxy-2-O-methyl-D-erythritol-4-yl]episulfoniumylidene]-D-arabitol chloride]
0.68	0.973	0.589	–	–	O=[N+]([O-])c1ccc(COC(CO)C(O)C[S+]2CC(O)C(O)C2CO)cc1 [Compound (Iv), 1,4-Dideoxy-1,4-[(R)[4-deoxy-2-O-(p-nitrobenzyl)-D-erythritol-4-yl]episulfoniumylidene]-D-arabitol chloride]
1.52	1.54	1.44	–	–	CCCCCOC(CO)C(O)C[S+]1CC(O)C(O)C1CO [Compound (Ic), 1,4-Dideoxy-1,4-[(R)-[4-deoxy-2-O-(1-pentyl)-D-erythritol-4-yl]episulfoniumylidene]-D-arabitol chloride]
1	2.13	0.799	–	–	OCc1ccc(COC(CO)C(O)C[S+]2CC(O)C(O)C2CO)cc1 [Compound (Iw), 1,4-Dideoxy-1,4-[(R)-[4-deoxy-2-O-(p-hydroxymethyl)benzyl)-D-erythritol-4-yl]episulfoniumylidene]-D-arabitol chloride]
0.3	0.277	0.86	–	–	CC(C)(C)COC(CO)C(O)C[S+]1CC(O)C(O)C1CO [Compound (If), 1,4-Dideoxy-1,4-[(R)-[4-deoxy-2-O-neopentyl-D-erythritol-4-yl]episulfoniumylidene]-D-arabitol chloride]
0.98	1.35	0.919	–	–	OCC(OCc1ccc(C(F)(F)F)cc1)C(O)C[S+]1CC(O)C(O)C1CO [Compound (Is), 1,4-Dideoxy-1,4-[(R)-[4-deoxy-2-O-(p-trifluoromethylbenzyl)-D-erythritol-4-yl]episulfoniumylidene]-D-arabitol chloride]
5.2	4.79	3.89	–	–	O=S(=O)([O-])OC(CO)C(O)C[S+]1CC(O)C(O)C1CO (stereo not shown) [Salacinol, salacinol, reference compound]
0.89	1.9	1.79	–	–	OCC(OCc1ccc(Cl)cc1)C(O)C[S+]1CC(O)C(O)C1CO [Compound (Im), 1,4-Dideoxy-1,4-[(R)-[2-O-(p-chlorobenzyl)-4-deoxy-D-erythritol-4-yl]episulfoniumylidene]-D-arabitol chloride]
0.8	0.679	0.707	–	–	CCCCCCCOC(CO)C(O)C[S+]1CC(O)C(O)C1CO [Compound (Id), 1,4-Dideoxy-1,4-[(R)-[4-deoxy-2-O-(1-heptyl)-D-erythritol-4-yl]episulfoniumylidene]-D-arabitol chloride]
0.86	3.06	1.89	–	–	Cc1ccc(COC(CO)C(O)C[S+]2CC(O)C(O)C2CO)cc1 [Compound (Ij), 1,4-Dideoxy-1,4-[(R)-[4-deoxy-2-O-(p-methylbenzyl)-D-erythritol-4-yl]episulfoniumylidene]-D-arabitol chloride]
–	0.423	0.953	–	–	CCOC(CO)C(O)C[S+]1CC(O)C(O)C1CO [Compound (Ib), 1,4-Dideoxy-1,4-[(R)-[4-deoxy-2-O-ethyl-D-erythritol-4-yl]episulfoniumylidene]-D-arabitol chloride]
0.53	2.11	0.816	–	–	OCC(OCc1cccc(Cl)c1)C(O)C[S+]1CC(O)C(O)C1CO [Compound (Il), 1,4-Dideoxy-1,4-[(R)-[2-O-(m-chlorobenzyl)-4-deoxy-D-erythritol-4-yl]episulfoniumylidene]-D-arabitol chloride]
1.04	2.95	2.17	–	–	CCCCCCCCCCCCCOC(CO)C(O)C[S+]1CC(O)C(O)C1CO [Compound (Ie), 1,4-Dideoxy-1,4-[(R)-[4-deoxy-2-O-(1-tridecyl)-D-erythritol-4-yl]episulfoniumylidene]-D-arabitol chloride]
0.44	–	–	0.32	0.12	F[B-](F)(F)F.OC[C@H](OCc1ccccc1)[C@H](O)C[S@+]1C[C@@H](O)[C@H](O)[C@H]1CO [Compound (Ig) (X = BF4), 1,4-dideoxy-1,4-[(R)-[2-O-benzyl-4-deoxy-D-erythritol-4-yl]episulfoniumylidene]-D-arabitol tetrafluoroborate]
0.31	0.237	0.684	–	–	OCC(OCc1ccccc1Cl)C(O)C[S+]1CC(O)C(O)C1CO [Compound (Ik), 1,4-Dideoxy-1,4-[(R)-[2-O-(o-chlorobenzyl)-4-deoxy-D-erythritol-4-yl]episulfoniumylidene]-D-arabitol chloride]

SMILES	α-glucosidase (IC50) Maltase [1] [µg/mL]	IC50 [2] [µM]	IC50 [3] [µM]	α-glucosidase (IC50) Sucrase [2] [µg/mL]	α-glucosidase (IC50) Isomaltase [3] [µg/mL]
OCC(CO)N[C@H]1C[C@](O)(CO)[C@@H](O)[C@H](O)[C@H]1O [voglibose, reference compound]	–	0.823	7.86	–	–
